The text below walks through data of patent US20210198277A1, “AMINE-SUBSTITUTED ARYL OR HETEROARYL COMPOUNDS” (Epizyme, Inc., priority 2016, published 2021).

The term IC50 denotes the point on the concentration scale where inhibition reaches its midpoint.

The target in the assay is T1, EHMT2 (Homo sapiens, UniProt Q96KQ7).
T1 construct: host or cells: MDA-MB-231
T1 sequence (Q96KQ7 1-1210): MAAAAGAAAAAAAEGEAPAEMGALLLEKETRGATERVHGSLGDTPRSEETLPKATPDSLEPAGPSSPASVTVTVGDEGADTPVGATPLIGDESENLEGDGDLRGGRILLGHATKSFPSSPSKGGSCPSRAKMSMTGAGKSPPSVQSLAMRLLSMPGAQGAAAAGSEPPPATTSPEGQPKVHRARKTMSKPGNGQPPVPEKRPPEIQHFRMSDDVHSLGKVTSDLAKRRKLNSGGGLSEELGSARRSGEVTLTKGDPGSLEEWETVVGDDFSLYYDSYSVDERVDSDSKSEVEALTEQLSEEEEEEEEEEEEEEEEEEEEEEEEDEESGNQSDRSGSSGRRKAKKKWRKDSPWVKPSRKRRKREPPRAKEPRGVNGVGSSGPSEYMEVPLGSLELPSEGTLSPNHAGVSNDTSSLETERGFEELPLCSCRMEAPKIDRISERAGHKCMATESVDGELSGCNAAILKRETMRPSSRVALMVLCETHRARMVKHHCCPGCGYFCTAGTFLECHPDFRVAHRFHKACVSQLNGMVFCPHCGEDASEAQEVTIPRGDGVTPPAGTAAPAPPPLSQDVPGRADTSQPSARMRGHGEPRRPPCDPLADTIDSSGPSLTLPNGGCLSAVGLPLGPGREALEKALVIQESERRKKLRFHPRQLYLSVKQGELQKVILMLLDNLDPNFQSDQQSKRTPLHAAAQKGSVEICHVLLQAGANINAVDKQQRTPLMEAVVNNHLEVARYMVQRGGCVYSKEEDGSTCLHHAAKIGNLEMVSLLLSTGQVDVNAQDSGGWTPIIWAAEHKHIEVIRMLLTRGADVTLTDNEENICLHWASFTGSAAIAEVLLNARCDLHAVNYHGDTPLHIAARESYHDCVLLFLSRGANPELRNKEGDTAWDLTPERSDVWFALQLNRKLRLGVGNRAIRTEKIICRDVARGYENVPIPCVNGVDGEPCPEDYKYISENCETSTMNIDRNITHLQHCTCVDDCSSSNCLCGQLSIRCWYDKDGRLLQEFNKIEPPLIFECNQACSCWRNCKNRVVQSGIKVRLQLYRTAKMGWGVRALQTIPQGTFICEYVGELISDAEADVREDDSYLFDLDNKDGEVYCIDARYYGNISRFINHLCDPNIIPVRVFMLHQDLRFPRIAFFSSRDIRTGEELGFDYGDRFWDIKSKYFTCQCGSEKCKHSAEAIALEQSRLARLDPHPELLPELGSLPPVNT
The experiment in a line: MDA-MB-231 H3K9me2 in-cell Western assay (EHMT2 ICW). In kind it is cell-based. The settings on record: Table VI; read-out: EHMT2 ICW IC50. Put shortly: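 Cells seeded at 3,000/well onto pre-dispensed compound; 30 min RT, then 48 h 37 °C/5% CO2. PFA fix, block, α-H3K9me2 1:800 o/n 4 °C, 800CW secondary + DRAQ5. Odyssey scan 700/800 nm; ratio → % inhibition → 4-parameter IC50.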
As to `CNc1ccnc(Nc2ccc(OC)c(OC[C@@H](C)CN3CCC3)c2)n1` [Compound 943], the IC50 lay in the range of 1000 to 10000 nM.

Turning to `COc1cnc(Nc2cc(NCC3COC3)cnn2)cc1OCCCN1CCCC1` [Compound 894], the IC50 was above 10000 nM.

As to `CNc1ccnc(Nc2ccc(OC)c(OC[C@@H]3CCN(C4CC4)C3)c2)n1` [Compound 928], the IC50 was below 100 nM.

For `CNc1ccnc(Nc2ccc(OC)c(OCCC(C)N3CCC3)c2)n1` (centres unmarked) [Compound 1014], the IC50 lay within 1000 to 10000 nM.

Consider `CNc1cc(C)nc(Nc2cnc(OC)c(OC[C@H](O)CN3CCC3)c2)n1` [Compound 963], for which the IC50 fell in the range of 100 to 1000 nM.

Consider `CCN1CC(COc2cc3nc(NC)nc(C4CCN(C)CC4)c3cc2OC)C1` [Compound 951], for which the IC50 was in the range of 1000 to 10000 nM.

On to `CNc1cc(C)nc(Nc2cc(OCCCN3CCCC3)c3nncn3c2)n1` [Compound 622], for which the IC50 is above 10000 nM.

Take `CNCCCOc1cc(Nc2nccc(NC)n2)cnc1OC` [Compound 917]: the IC50 lay in the range of 1000 to 10000 nM.

Turning to `CNc1cc(C2CCN([C@H]3CCOC3)CC2)c2cc(OC)c(OCCCN3CCCC3)cc2n1` [Compound 867], the IC50 is below 100 nM.

With `CNc1nc2cc(OCCCN3CCCC3)c(OC)cc2cc1Cl` [Compound 903], the IC50 is 1000 to 10000 nM.

For `CNc1cc(C)nc(Nc2ccc(OC)c(CNCCN(C)C)c2)n1` [Compound 990], the IC50 is 100 to 1000 nM.

Turning to `CCN1CC[C@@H](COc2cc(Nc3nccc(NC)n3)ccc2OC)C1` [Compound 927], the IC50 lay in the range of 100 to 1000 nM.

Turning to `COc1cc2c(C3CCN(C)CC3)nc(N3CCCC3)nc2cc1OCCCN1CC(O)C1` [Compound 950], the IC50 fell in the range of 1000 to 10000 nM.

On to `CNC(=O)N1CC(CNc2cc(C)nc(Nc3cnc(OC)c(OCCCN4CCCC4)c3)n2)C1` [Compound 888], for which the IC50 was above 10000 nM.

For the compound `COc1cc2c(C3CCN(C)CC3)cc(N3CCCC3)nc2cc1OCCCN1CCCC1` [Compound 625], the IC50 lay in the range of 100 to 1000 nM.

`CNc1cc(C)nc(Nc2ccc(OC)c(OC[C@H](O)CNC3CCC3)c2)n1` [Compound 962]: the IC50 was in the range of 1000 to 10000 nM.

As to `COc1cc2cc(C#N)c(C)nc2cc1OCCCN1CCCC1` [Compound 895], the 50% inhibitory concentration (IC50) is above 10000 nM.

Take `COc1ccc(Nc2nc(C)cc(C3CCOCC3)n2)cc1OCCCN1CCCC1` [Compound 870]: the IC50 is above 10000 nM.

For `CNc1ccnc(Nc2ccc(OC)c(OCC(C)(O)CN3CCC3)c2)n1` (centres unmarked) [Compound 1005], the IC50 fell in the range of 1000 to 10000 nM.

For `CNCCNCc1cc(Nc2nc(C)cc(NC)n2)ccc1OC` [Compound 964], the IC50 lay in the range of 1000 to 10000 nM.

Consider `CNc1cc(C)nc(Nc2ccc(OC)c(C#CCN3CCOCC3)c2)n1` [Compound 904], for which the IC50 is above 10000 nM.

As to `CNc1ccnc(Nc2cnc(OC)c(OC[C@@H]3CCN(C)C3)c2)n1` [Compound 912], the IC50 was in the range of 100 to 1000 nM.

As to `CCN1CC(COc2cc(Nc3cccn4cnnc34)ncc2OC)C1` [Compound 620], the IC50 was above 10000 nM.

Consider `CNC(=O)CCNc1cc(C)nc(Nc2cnc(OC)c(OCCCN3CCCC3)c2)n1` [Compound 887], for which the IC50 lay in the range of 1000 to 10000 nM.

Consider `CNc1cc(C)nc(Nc2ccc(OC)c(OC[C@H](O)CN3CC(C)C3)c2)n1` [Compound 985], for which the IC50 lay in the range of 100 to 1000 nM.

Consider `CNc1ccnc(Nc2cnc(OC)c(OCCCN3CCC3)c2)n1` [Compound 914], for which the IC50 lay in the range of 100 to 1000 nM.

Regarding `CCNc1cc(C2CCOCC2)c2cc(OC)c(OCCCN3CCCC3)cc2n1` [Compound 865], the IC50 lay in the range of 100 to 1000 nM.

For the compound `CNCCC(C)Oc1cc(Nc2nccc(NC)n2)ccc1OC` (centres unmarked) [Compound 1011], the IC50 was in the range of 1000 to 10000 nM.

For `CNc1nc(C2=CC(C)(C)NC(C)(C)C2)c2cc(OC)c(OCCCN3CCCC3)cc2n1` [Compound 961], the IC50 is above 10000 nM.

As for `CNc1cc(C)nc(Nc2cnc(OC)c(OCCCN3CCC3)c2)n1` [Compound 949], the IC50 was 100 to 1000 nM.

For the compound `CNc1ccnc(Nc2ccc(OC)c(OC[C@H](O)CN3CCC3)c2)n1` [Compound 908], the IC50 is 100 to 1000 nM.

With `CCN1CC[C@@H](COc2cc(Nc3nc(C)cc4[nH]ncc34)ncc2OC)C1` [Compound 947], the IC50 lay in the range of 1000 to 10000 nM.

As to `CNc1cc(C)nc(Nc2ccc(OC)c(OCCCc3nc(Cl)cn3C)c2)n1` [Compound 891], the half-maximal inhibitory concentration (IC50) was above 10000 nM.

Take `CNc1ccnc(Nc2ccc(OC)c(OC[C@H]3CN(C)CCO3)c2)n1` [Compound 931]: the IC50 was above 10000 nM.

With `COc1ccc(Nc2nc(C)cc(NCCS(=O)(=O)N(C)C)n2)cc1OCCCN1CCCC1` [Compound 893], the IC50 is 100 to 1000 nM.

Turning to `CNc1cc(C)nc(Nc2ccc(OC)c(OC[C@H](O)CN3CC(F)C3)c2)n1` [Compound 986], the IC50 was 1000 to 10000 nM.

Take `CNc1cc(C)nc(Nc2ccc(OC)c(CNCCN3CCC3)c2)n1` [Compound 965]: the IC50 was below 100 nM.

Take `COc1cc2c(C3CCN([C@H]4CCOC4)CC3)cc(C)nc2cc1OCCCN1CCCC1` [Compound 864]: the IC50 is 100 to 1000 nM.

Take `CNc1ccnc(Nc2ccc(OC)c(OC[C@@H](O)CN3CCC3)c2)n1` [Compound 907]: the IC50 fell in the range of 1000 to 10000 nM.

For the compound `CNc1cc(C)nc(Nc2c[nH]c(=O)c(OCCCN3CCCC3)c2)n1` [Compound 621], the IC50 is above 10000 nM.

In the case of `CNc1nc2cc(OCCCN3CCCC3)c(OC)cc2cc1F` [Compound 897], the IC50 is above 10000 nM.

As for `CNCC(C)COc1cc(Nc2nccc(NC)n2)ccc1OC` (centres unmarked) [Compound 1009], the IC50 lay within 1000 to 10000 nM.

Take `COc1cnc(Nc2cccc3[nH]nnc23)cc1OCCCN1CCCC1` [Compound 619]: the IC50 is above 10000 nM.

With `CNc1cc(C)nc(Nc2cnc(OC)c(OC[C@@H](O)CN3CCCC3)c2)n1` [Compound 881], the IC50 was 100 to 1000 nM.

As to `CNc1cc(C)nc(Nc2ccc(CNC(=O)c3ccccc3)c(OC)c2)n1` [Compound 876], the IC50 was above 10000 nM.

On to `CNc1ccnc(Nc2ccc(OC)c(OCCC(C)NC)c2)n1` (centres unmarked) [Compound 1016], for which the IC50 was 1000 to 10000 nM.

Turning to `CNc1cc(C2CCN([C@@H]3CCOC3)CC2)c2cc(OC)c(OCCCN3CCCC3)cc2n1` [Compound 866], the IC50 is below 100 nM.

Turning to `CNS(=O)(=O)CCNc1cc(C)nc(Nc2ccc(OC)c(OCCCN3CCCC3)c2)n1` [Compound 892], the IC50 lay within 1000 to 10000 nM.

Turning to `CNc1ccnc(Nc2ccc(OC)c(OCC(C)CN3CCC3)c2)n1` (centres unmarked) [Compound 1008], the IC50 lay in the range of 100 to 1000 nM.

Regarding `CNc1cc(C)nc(Nc2ccc(OC)c(OCCCc3nc(Cl)c[nH]3)c2)n1` [Compound 890], the IC50 is above 10000 nM.

Consider `CNc1ccnc(Nc2ccc(OC)c(OC[C@@H]3CNCCO3)c2)n1` [Compound 938], for which the IC50 is above 10000 nM.

Turning to `CNC(=O)C1CCN(c2cc3nc(NC)cc(C)c3cc2OC)C1` (centres unmarked) [Compound 900], the IC50 fell in the range of 100 to 1000 nM.

In the case of `CNc1cc(C)nc(Nc2cnc(OC)c(OC[C@H](O)CN3CCCC3)c2)n1` [Compound 882], the IC50 was 1000 to 10000 nM.

For the compound `CCN1CCC(O)(COc2cc(Nc3nccc(NC)n3)ccc2OC)C1` (centres unmarked) [Compound 1006], the IC50 lay in the range of 100 to 1000 nM.

For `CNc1cc(C)nc(Nc2cc(OCCCN3CCCC3)c3ncnn3c2)n1` [Compound 623], the IC50 lay within 1000 to 10000 nM.

In the case of `CNc1ccnc(Nc2cnc(OC)c(OC[C@@H]3CCN(C4CCC4)C3)n2)n1` [Compound 974], the IC50 was in the range of 100 to 1000 nM.

For the compound `CNC[C@@H](O)COc1cc(Nc2nccc(NC)n2)cnc1OC` [Compound 918], the IC50 lay in the range of 1000 to 10000 nM.

Take `CNc1cc(C)nc(Nc2ccc(OC)c(OC[C@@H](O)CN3CCCC3)c2)n1` [Compound 905]: the IC50 was 100 to 1000 nM.

For `CNC[C@H](COc1cc(Nc2nccc(NC)n2)ccc1OC)OC` [Compound 921], the IC50 was above 10000 nM.

For `COc1cc2cc(F)c(C)nc2cc1OCCCN1CCCC1` [Compound 896], the half-inhibitory concentration (IC50) was above 10000 nM.

`COc1ncc(Nc2nc(C)cc(NCC3COC3)n2)cc1OC[C@@H](O)CN1CCCC1` [Compound 883]: the IC50 was above 10000 nM.

Turning to `CCN1CCO[C@@H](COc2cc(Nc3nccc(NC)n3)ccc2OC)C1` [Compound 932], the IC50 is above 10000 nM.

`CNc1cc(C)nc(Nc2ccc(OC)c(C(=O)NCc3ccccc3)c2)n1` [Compound 871]: the IC50 is above 10000 nM.

As for `CNc1ccnc(Nc2ccc(OC)c(OC[C@H](C)CN3CCC3)c2)n1` [Compound 945], the IC50 lay within 100 to 1000 nM.

For `CNc1ccnc(Nc2ccc(OC)c(OC[C@@H](CN3CCCC3)OC)c2)n1` [Compound 919], the IC50 is above 10000 nM.
